Reference: publication PMC9011347, “Small-Molecule Inhibitors Targeting Lipolysis in Human Adipocytes” (Journal of the American Chemical Society, 2022)

What was measured:
Assay in all cases: TAG hydrolase assay, Expi293 lysates expressing ATGL orthologue
Format in all cases: biochemical
marmoset ATGL = system: marmoset ATGL
Description: (§1) We previously developed Atglistatin (Ai), a selective inhibitor of mouse ATGL,[31],[32] which is ineffective against human ATGL.[17] Ai acts as a competitive inhibitor targeting the minimal active domain of ATGL ranging from aa 1–254.[33] This domain is highly conserved in different mammalian species (∼90% identity, Table 1) and comprises the patatin-like domain, eponymous for all members of the patatin-like phospholipase domain-containing (PNPLA) protein family.[34] We first investigated the species selectivity of Ai by performing TAG hydrolase assays[35] with lysates from Expi293 cells expressing ATGL orthologues of different species. The activity of ATGL is strongly stimulated by the co-activator protein comparative gene identification-58 (CGI-58, also known as α/β hydrolase domain containing 5, ABHD5)[36] and can be suppressed by the inhibitory protein G0/G1 switch 2 (G0S2).[37] We therefore determined ATGL activity in the presence and absence of mouse CGI-58, mouse G0S2, and Ai. As shown in Figure 1a–i, all ATGL orthologues were expressed, enzymatically active, stimulated by mouse CGI-58, and inactivated by mouse G0S2. Ai inhibited mouse (Figure 1a), rat (Figure 1b), goat (Figure 1c), dog (Figure 1e), and marmoset ATGL (Figure 1f), but not pig (Figure 1d), rhesus monkey (Figure 1g), or human ATGL (Figure 1h).
(§2) Experimental details, materials, and methods
(§3) Expression of recombinant ATGL constructs and preparation of cell lysates. Expi293 cells were cultivated in Expi293 Expression Medium (GIBCO, Thermo Fisher Scientific, Waltham, USA) at standard conditions (37°C, 5% CO2, 95% humidified atmosphere, 125 rpm). DNA constructs containing ATGL from different species and chimeric ATGL variants in pcDNA3.1(+)myc-His C Vector were obtained from BioCat GmbH (Heidelberg, Germany). Cells were transfected with ExpiFectamine293 Transfection Kit (GIBCO) in Opti-Mem reduced serum medium (GIBCO) according to the manufacturer’s instructions. After 48 h, cells were harvested by centrifugation and washed three times with PBS. Cells were disrupted in buffer A (0.25 M sucrose, 1 mM EDTA, 1 mM dithiothreitol, 20µg/ml leupeptin, 2 µg/ml antipain, 1 µg/ml pepstatin, pH 7.0) by sonication (Virsonic 475, Virtis, Gardiner, USA). Nuclei and debris were removed by centrifugation at 1,000 g and 4°C for 10 min. Protein concentrations were determined using Bio-Rad protein assay (Bio-Rad 785, Bio-Rad Laboratories, Munich, Germany) using BSA as standard.
(§4) Expression and purification of mouse CGI-58. CGI-58 was expressed and purified as described 1. In brief, the coding sequence of mouse Cgi-58 was cloned into pHis-Sumo and co-transformed with the plasmid pTf16 expressing the chaperone Tig into E. coli BL21(DE3). Cells were cultured overnight at 37°C and 180 rpm in the presence of 40 µg/ml kanamycin and 34 µg/ml chloramphenicol. Thereafter, cells were transferred into fresh LB medium, grown until OD600 of 0.6, and expression was induced by the addition of 0.5 mM IPTG. After overnight incubation at 30°C, cells were harvested at 4,500 x g and 4°C for 20 min, washed in 1x PBS, and resuspended in lysis buffer (20 mM Tris/HCl pH 7.8, 300 mM NaCl, 30 mM imidazole, 0.1% IGEPAL CA-630, 3.5 mM β-mercaptoethanol, 20 µg/ml leupeptin, 2 µg/ml antipain and 1 µg/ml pepstatin). Cells were incubated with 1 mg/ml lysozyme at 4°C for 20 min, disrupted by sonication, and lysates were centrifuged at 30,000 x g and 4°C for 40 min. His-CGI-58 was purified from the supernatant using an ÄKTA pure system (Cytiva, Uppsala, Sweden) equipped with a 5 ml HisTrap […]
(§5) Expression and purification of mouse G0S2. Chemically competent E. coli ArcticExpress (DE3) cells were transformed with the pST50-SMT3-TEV-mG0S2-His expression plasmid, plated on LB agar plates containing 100 ampicillin, and incubated […] overnight at 37°C. The next day, 10 ml LB medium supplemented with 100 μg/ml ampicillin, 20 μg/ml gentamycin and 2% glucose were inoculated with a single colony and incubated overnight at 37°C. […]

mouse ATGL = biological target: T1, mouse ATGL (Mus musculus, UniProt Q8BJ56)
T1 construct: host or cells: Expi293 cells, crude lysate
T1 sequence (Q8BJ56 whole entry): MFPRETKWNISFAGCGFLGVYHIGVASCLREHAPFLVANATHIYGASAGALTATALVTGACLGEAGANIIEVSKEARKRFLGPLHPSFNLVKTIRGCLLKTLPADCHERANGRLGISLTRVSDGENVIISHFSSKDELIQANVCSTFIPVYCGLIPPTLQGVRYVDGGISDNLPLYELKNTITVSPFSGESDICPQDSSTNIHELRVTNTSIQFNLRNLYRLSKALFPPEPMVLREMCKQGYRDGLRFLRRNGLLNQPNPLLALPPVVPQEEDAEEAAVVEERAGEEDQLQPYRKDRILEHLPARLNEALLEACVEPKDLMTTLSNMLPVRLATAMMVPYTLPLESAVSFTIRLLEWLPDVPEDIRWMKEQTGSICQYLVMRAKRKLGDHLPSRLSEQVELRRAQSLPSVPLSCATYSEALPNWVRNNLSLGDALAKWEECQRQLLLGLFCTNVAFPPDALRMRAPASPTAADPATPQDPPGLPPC
Description: as §1, §2, §3, §4, §5

dog ATGL = system: dog ATGL
Description: as §1, §2, §3, §4, §5

rat ATGL = biological target: T2, rat ATGL (Rattus norvegicus, UniProt P0C548)
T2 construct: host or cells: Expi293 cells, crude lysate
T2 sequence (P0C548 whole entry): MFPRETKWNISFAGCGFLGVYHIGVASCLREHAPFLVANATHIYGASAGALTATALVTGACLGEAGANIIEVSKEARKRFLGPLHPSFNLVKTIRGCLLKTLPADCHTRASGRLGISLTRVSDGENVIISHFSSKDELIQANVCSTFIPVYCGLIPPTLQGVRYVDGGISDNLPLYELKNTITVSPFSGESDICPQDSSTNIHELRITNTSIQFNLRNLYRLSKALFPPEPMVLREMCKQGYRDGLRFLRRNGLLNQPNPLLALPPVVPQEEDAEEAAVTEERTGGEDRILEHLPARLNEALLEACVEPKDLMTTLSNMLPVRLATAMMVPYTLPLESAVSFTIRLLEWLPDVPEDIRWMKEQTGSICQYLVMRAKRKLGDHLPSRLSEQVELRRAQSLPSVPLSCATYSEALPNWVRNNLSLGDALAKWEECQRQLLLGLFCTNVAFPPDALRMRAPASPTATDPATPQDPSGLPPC
Description: as §1, §2, §3, §4, §5

goat ATGL = system: goat ATGL
Description: as §1, §2, §3, §4, §5

Structure (SMILES) | inhibition of TAG hydrolase activity (marmoset ATGL; Atglistatin (Ai) 40 μM) | inhibition of TAG hydrolase activity (mouse ATGL; Atglistatin (Ai) 40 μM) | inhibition of TAG hydrolase activity (dog ATGL; Atglistatin (Ai) 40 μM) | inhibition of TAG hydrolase activity (rat ATGL; Atglistatin (Ai) 40 μM) | inhibition of TAG hydrolase activity (goat ATGL; Atglistatin (Ai) 40 μM) | reduction in TAG hydrolase activity (marmoset ATGL; NG-497 50 μM) | reduction in TAG hydrolase activity (mouse ATGL; NG-497 50 μM) | reduction in TAG hydrolase activity (dog ATGL; NG-497 50 μM) | reduction in TAG hydrolase activity (rat ATGL; NG-497 50 μM) | reduction in TAG hydrolase activity (goat ATGL; NG-497 50 μM)
CN(C)C(=O)Nc1cccc(-c2ccc(N(C)C)cc2)c1 [Atglistatin, reference compound] | inhibited | inhibited | inhibited | inhibited | inhibited | – | – | – | – | –
CCOc1ccc(-c2cc(OC)cc(C(=O)OC(C)C)n2)cc1 [NG-497] | – | – | – | – | – | less than 20% | less than 20% | less than 20% | less than 20% | less than 20%
